{
  "source": "patent US20120329879A1",
  "about": "“BETA-ADRENERGIC RECEPTOR AGONISTS AND USES THEREOF” (THE UNIVERSITY OF TENNESSEE RESEARCH FOUNDATION, priority 2010, published 2012)",
  "key": {"[1]": {"tested_on": "retinal vasculature of hypoxic mice", "experiment": "Oxygen-induced retinopathy model of proliferative diabetic retinopathy", "assay_type": "in vivo", "conditions": "1 mM eye drops once daily on days 13, 14, 15, sacrificed day 17", "description": "A model of oxygen-induced retinopathy was used to determine the effects in vivo of Compound 2 on mice. Mice were placed into a chamber with 100% oxygen at day 7 of life. On day 12, they were removed from the chamber into normal air. The retina interprets this as hypoxia and starts angiogenesis. Mice were treated with 1 mM Compound 2 in eye drops once daily on days 13, 14, 15. Animals were sacrificed on day 17. FIGS. 19A-19 Retinal flat mounts were prepared."}, "[2]": {"experiment": "Tissue distribution of Compound 2 in heart, lung and spleen after topical delivery", "assay_type": "in vivo", "conditions": "rat, 24 hours after topical 10 mg/kg, single animals 1-5"}, "Akt (Ser 473)": {"tested_on": "Akt (Ser 473)", "experiment": "Western blot of phosphorylated Akt to total Akt in rat retina", "assay_type": "in vivo", "conditions": "diabetic rats, daily 1 mM, retinal lysates", "source_text": "(§1) The other eye from each animal was used for protein analyses for inflammatory markers and insulin receptor signaling. Western blotting was done as described (9). Antibodies used were total insulin receptor beta (1:500, Cellular Signaling, Danvers, Mass.), phosphorylated insulin receptor beta (Tyr 1150/1151, 1:500, Cellular Signaling, Danvers, Mass.), total Akt (1:500, Cellular Signaling, Danvers, Mass.), and phosphorylated Akt (Ser 473, 1:500, Cellular Signaling, Danvers, Mass.). For analyses of the data, mean densitometry values were obtained using the Kodak 2.0 software. The ratio of phosphorylated protein was compared to levels of total protein."}, "PKA": {"tested_on": "PKA", "experiment": "PKA ELISA of retinal lysates after Compound 2 eye drops in diabetic rats", "assay_type": "in vivo, rat", "conditions": "topical 1 mM once daily for 4 days, compared with other doses (1 mM to 20 mM), hydrochloride", "description": "To determine whether topical application of Compound 2 could reach the retina and elicit response, dose and time course studies were performed. For those studies, animals were made diabetic for 2 months using STZ. For 4 days, rats received a variety of doses of either Compound 2 (1 mM to 20 mM) or PBS once or twice each day. After the 4 days of eye drop treatment to both eyes, the diabetic and control animals were euthanized. Since beta-adrenergic receptor stimulation should increase cyclic adenosine monophosphase production and activate protein kinase A, retinal lysates were processed for a PKA ELISA (MesaCup PKA ELISA, Upstate, Temecula, Calif.). […] At 2 or 8 months, retinas were assessed for diabetes-induced degeneration of retinal cell numbers and retinal thickness (2 months) and for degenerate capillaries (8 months). TNF activity, cleaved caspase 3 and phosphorylation of insulin receptor beta and Akt were assessed at both time points. […]"}, "[3]": {"tested_on": "insulin receptor beta (Tyr 1150/1151)", "experiment": "Western blot of phosphorylated to total insulin receptor beta in rat retina", "assay_type": "in vivo", "conditions": "diabetic rats, 1 mM eye drops", "source_text": "as §1"}, "[4]": {"experiment": "Body weight, blood glucose, blood pressure and intraocular pressure in streptozotocin diabetic rats on eye drop therapy", "assay_type": "in vivo, rat", "quoted_text": "Male Lewis rats purchased from Charles River were used. Diabetic rats received a single injection of 60 mg/kg streptozotocin (Fisher, Pittsburgh, Pa.). […] All rats were weighed weekly and only rats with non-fasting blood glucose levels >250 mg/dl were considered diabetic. The designation of diabetic was made at the beginning of the experiments. Glucose was measured bimonthly. No insulin was administered to the rats at any time. To determine whether topical application of Compound 2 could reach the retina and elicit response, dose and time course studies were performed. For those studies, animals were made diabetic for 2 months using STZ. For 4 days, rats received a variety of doses of either Compound 2 (1 mM to 20 mM) or PBS once or twice each day. After the 4 days of eye drop treatment to both eyes, the diabetic and control animals were euthanized. […] After determining the optimal dose and time course for eye drop treatment for Compound 2, three groups of rats were used for this part of the study (control, diabetic (Diabetic), and diabetic+eye drop (Diab+2). Within 1 week of STZ-injection, 12 rats were put onto eye drop therapy. Rats on the eye drop therapy received a daily application of 4 drops of 1 mM Compound 2 to each eye. To verify that insulin levels were lost in the diabetic animals, insulin ELISA (Rat/Mouse Insulin ELISA kit, Linco, St. Charles, Mo.) was done on blood sampled from all rats at 2 months of age. Rats were sacrificed at 2 or 8 months of age. […] Analyses on the rats were done for acute changes (8 weeks of diabetes, 45 rats) and chronic changes (8 months of diabetes, 45 rats). […] Each month, all rats were tested for visual function: electroretinogram (ERG) and live retinal imaging were performed using Optical Coherence Topography (OCT). […] While the animals were asleep for ERG analyses, blood pressure and pulse were monitored to detect potential negative cardiovascular events."}, "retina of diabetic rats": {"tested_on": "retina of diabetic rats", "experiment": "Assessment of retinal thinning and loss of cells in ganglion cell layer", "assay_type": "in vivo, rat", "source_text": "Assessment of retinal thinning and loss of cells in ganglion cell layer Formalin-fixed paraffin sections were stained with toluidine blue for light microscopy and morphometry of retinal thickness (8). Pictures were taken at four locations in the retina (both sides of the optic nerve and mid-retina) at 400×. The nuclei in the retinal ganglion cell layer (GCL) were counted in a […] section of each picture, and the thickness of the inner retina (from the top of the inner nuclear layer to the inner limiting membrane) was assessed using a Retiga camera attached to a Nikon Biophot light microscope with Qcapture software (Qlmaging, Burbay, BC, Canada). Retinal thickness and number of cells in the ganglion cell layer were measured using OpenLab software (Improvision, Lexington, Mass.). Retinal thickness and live retinal imaging were assessed using rodent OCT. Each layer of the retina was examined multiple times on the same animal in a non-invasive way to determine changing in specific regions over the course of the experiment. […] Light microscopy was used for histological examination of neuronal changes, which often occur in the acute phases. Formalin-fixed paraffin sections were stained with toluidine blue for light microscopy and morphometry of retinal thickness. Pictures were taken at four locations in the retina (both sides of the optic nerve and mid-retina) at 400×. The nuclei in the retinal ganglion cell layer (GCL) were counted in a 100 μm section of each picture. The thickness of the inner retina from the top of the inner nuclear layer to the inner limiting membrane was assessed using a Retiga camera attached to a Nikon Biophot light microscope with Qcapture software (Qlmaging, Burbay, BC, Canada). Retinal thickness and number of cells in the retinal ganglion cell layer were measured using OpenLab software (Improvision, Lexington, Mass.). Unpaired T-tests were used to compare data from control, diabetic, and diabetic+eye drop treated animals, with P<0.05 being accepted as significant."}, "TNFalpha": {"tested_on": "TNFalpha", "experiment": "TNFalpha ELISA of retina of diabetic rats", "assay_type": "in vivo, rat", "source_text": "as §1\nTo determine the TNF concentration (Pierce, Rockford Ill.) and levels of cleaved caspase 3 (Cellular Signaling, Danvers, Mass.), ELISA analyses were done according to manufacturers instructions, except that equal protein was loaded into the cleaved caspase 3 ELISA so the optical density numbers can be used."}, "[5]": {"conditions": "diabetic rats, daily 1 mM Compound 2 eye drops, in mmHg (unit assumed)"}, "[6]": {"conditions": "following Compound 2 treatment, in words"}, "[7]": {"conditions": "delayed treatment: 6 month diabetic rats, Compound 2 for 2 months"}, "[8]": {"conditions": "diabetic rats, 1 mM eye drops as preventative, central retina, hydrochloride"}},
  "note": "Values joined by “and” are separate entries in the source; they are usually repeats but may differ in a detail not shown here. Equal entries are not always repeated. “Also recorded” adds a separate entry of the source.",
  "data": [
    {"smiles": "COc1cc(CCNC[C@H](O)c2ccc(O)c(O)c2)cc(OC)c1OC.Cl", "note": "(single isomer, unassigned) [Compound 2, 4-[1-hydroxy-2-(1-ethylamino-3-,4-,5-trimethoxyphenyl)ethyl]benzene-1,2-diol hydrochloride]", "values": [
      {"measurement": "development of retinal vasculature (retinal flat mounts)", "setting": "[1]", "value": "the retina is much more developed and appears normal"},
      {"measurement": "concentration in Heart", "setting": "[2]", "value": "<400", "unit": "ng/g"},
      {"measurement": "concentration in Lung", "setting": "[2]; hydrochloride", "value": "463.43 ng/g and 2262.08 ng/g and 2862.22 ng/g and 2060.08 ng/g and 535.24 ng/g"},
      {"measurement": "concentration in Spleen", "setting": "[2]; hydrochloride", "value": "12134.03 ng/g and 8393.8 ng/g and 7061.2 ng/g and 4544.4 ng/g and 34331.0 ng/g"},
      {"measurement": "concentration at 24 h", "setting": "[2]; heart, topical, 10 mg/kg", "value": "< 400", "unit": "ng/g"},
      {"measurement": "ratio of phosphorylated Akt to total Akt", "setting": "Akt (Ser 473)", "value": "maintained the ratio of phosphorylated Akt at levels similar to control values"},
      {"measurement": "PKA activity in the retina", "setting": "PKA", "value": "showed the highest increase in PKA activity; also recorded: significantly increased PKA activity in the retina"},
      {"measurement": "insulin receptor beta tyrosine phosphorylation, 2 months", "setting": "[3]; 2 months of diabetes", "value": "maintained insulin receptor beta tyrosine phosphorylation at levels similar to control animals"},
      {"measurement": "insulin receptor beta tyrosine phosphorylation, 8 months", "setting": "[3]; 8 months of diabetes", "value": "also maintained"},
      {"measurement": "effect on body weight", "setting": "[4]; daily administration of 1 mM, in words", "value": "did not affect"},
      {"measurement": "Body wt", "setting": "[4]; diabetic rats, daily 1 mM Compound 2 eye drops", "value": "248.7 ± 8.3", "unit": "g"},
      {"measurement": "BP Systolic", "setting": "[4]; [5]", "value": "104.8 ± 13.7"},
      {"measurement": "IOP", "setting": "[4]; [5]", "value": "8.08 ± 1.17"},
      {"measurement": "effect on blood pressure", "setting": "[4]; [6]", "value": "no observed effect"},
      {"measurement": "effect on intraocular pressure", "setting": "[4]; [6]", "value": "no observed effect"},
      {"measurement": "increase in retinal thickness over diabetic rats alone", "setting": "retina of diabetic rats; [7]", "value": "~50", "unit": "%"},
      {"measurement": "loss of cells in the ganglion cell layer, delayed treatment", "setting": "retina of diabetic rats; [7]", "value": "no loss of cells in the ganglion cell layer"},
      {"measurement": "inner retinal thickness", "setting": "retina of diabetic rats; [8]", "value": "loss of inner retinal thickness was prevented; also recorded: maintains the retinal thickness"},
      {"measurement": "number of cells in the ganglion cell layer", "setting": "retina of diabetic rats; [8]", "value": "prevented in the Compound 2-treated animals; also recorded: maintains the retinal thickness and cell number"},
      {"measurement": "loss of retinal thickness and apoptosis of cells of the ganglion cell layer", "setting": "retina of diabetic rats; diabetic rats, 50 mM eye drops 1 time each day for 8 months", "value": "effective in preventing the loss of retinal thickness and apoptosis of cells of the ganglion cell layer"},
      {"measurement": "TNFalpha levels in retina, 8 months", "setting": "TNFalpha; 1 mM eye drops, 8 months", "value": "levels similar to Ctrl rats"},
      {"measurement": "TNFα concentration throughout the treatment regimen", "setting": "TNFalpha; eye drop therapy", "value": "effective in reducing TNFα concentration throughout the treatment regimen"}
    ]}
  ]
}
